Consider seven compounds from ChEMBL document CHEMBL1129106, “The development of non-steroidal dual inhibitors of both human 5-reductase isozymes” (Bioorg Med Chem Lett, 1996).

Usually clearance stands for the volume of plasma or blood freed of the substance per unit of time. A word on the Vd: it is a proportionality between amount in the body and measured concentration, not a real space. What is called bioavailability is dose-corrected exposure relative to a reference, in per cent. Low values mean poor availability, high ones good availability. One may read the half-life as how long it takes for the measured level to halve. The low end stands for fast loss, the high end for slow loss.

The target in data set [1] is T1, 3-oxo-5-alpha-steroid 4-dehydrogenase 1 (Homo sapiens) (UniProt P18405).
T1 sequence (whole entry): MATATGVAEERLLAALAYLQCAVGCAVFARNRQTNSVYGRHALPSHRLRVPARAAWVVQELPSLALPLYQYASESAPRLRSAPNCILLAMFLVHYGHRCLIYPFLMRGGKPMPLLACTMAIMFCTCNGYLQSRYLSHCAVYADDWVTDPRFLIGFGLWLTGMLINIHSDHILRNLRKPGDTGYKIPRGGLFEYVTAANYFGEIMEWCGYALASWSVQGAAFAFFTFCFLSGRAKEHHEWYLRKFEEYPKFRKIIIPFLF
Nature of the data set: Compound was tested in vitro for its inhibitory activity against human 5Alpha-R1 expressed as potency.

The target of data set [2] is T2, 3-oxo-5-alpha-steroid 4-dehydrogenase 2 (Homo sapiens) (UniProt P31213).
T2 sequence (whole entry): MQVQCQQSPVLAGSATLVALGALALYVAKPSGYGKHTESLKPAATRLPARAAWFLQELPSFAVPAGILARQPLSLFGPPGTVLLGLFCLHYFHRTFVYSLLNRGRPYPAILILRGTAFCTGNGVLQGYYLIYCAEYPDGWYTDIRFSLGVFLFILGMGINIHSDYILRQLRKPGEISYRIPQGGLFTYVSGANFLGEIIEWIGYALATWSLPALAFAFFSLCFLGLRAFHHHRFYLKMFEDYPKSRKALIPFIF
Nature of the data set: Compound was tested in vitro for its inhibitory activity against human 5Alpha-R2 expressed as potency.

For data set [3], the target named is Steroid 5-alpha-reductase (Rattus norvegicus) (UniProt P24008+P31214). In words: Compound was tested in vitro for its inhibitory activity against rat 5Alpha-R expressed as potency. In kind it is protein assay.
Data set [4] is described as follows: Plasma clearance in dog. In kind it is ADME, organism-based, Canis lupus familiaris.
A short description of data set [5]: Volume of distribution in rat. The note with it: in vivo. In kind it is ADME, organism-based.
A short description of data set [6]: Oral bioavailability in dog. The following applies: in vivo. In kind it is ADME, organism-based, Canis lupus familiaris.
Data set [7] is described as follows: Half-life in rat plasma. In kind it is ADME, organism-based.
A short description of data set [8]: Plasma clearance in rat. In kind it is ADME, organism-based.
Data set [9] in a line: Oral bioavailability in rat. In kind it is ADME, organism-based. The note with it: in vivo.
Data set [10] is described as follows: Volume of distribution in dog. In kind it is ADME, organism-based, Canis lupus familiaris. The following applies: in vivo.

Steroid 5-alpha-reductase (Rattus norvegicus), sequence (P24008 whole entry, looked up): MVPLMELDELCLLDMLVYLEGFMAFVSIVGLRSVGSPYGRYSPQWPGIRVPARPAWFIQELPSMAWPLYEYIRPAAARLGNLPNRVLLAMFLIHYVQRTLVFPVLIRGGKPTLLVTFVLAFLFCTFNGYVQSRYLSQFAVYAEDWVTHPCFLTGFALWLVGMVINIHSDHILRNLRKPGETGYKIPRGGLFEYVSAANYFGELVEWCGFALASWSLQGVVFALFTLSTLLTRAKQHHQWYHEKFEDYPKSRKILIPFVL
Steroid 5-alpha-reductase (Rattus norvegicus), sequence (P31214 whole entry, looked up): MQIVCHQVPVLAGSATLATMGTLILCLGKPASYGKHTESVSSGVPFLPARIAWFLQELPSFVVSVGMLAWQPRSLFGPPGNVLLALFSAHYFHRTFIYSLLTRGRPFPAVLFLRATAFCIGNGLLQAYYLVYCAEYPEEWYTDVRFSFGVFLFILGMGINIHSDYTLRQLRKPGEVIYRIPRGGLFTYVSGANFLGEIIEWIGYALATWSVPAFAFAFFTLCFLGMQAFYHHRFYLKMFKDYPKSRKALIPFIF

As for `CC(C)Cc1ccc([C@@H](C)Oc2ccc(C(=O)c3cn(CCCC(=O)O)c4ccccc34)cc2)cc1`, the Potency stood at 574 nM in data set [1], 69 nM in data set [2] and 30 nM in data set [3].
For `CCCc1ccc(OC(C)c2ccc(C(=O)c3cn(CCCC(=O)O)c4ccccc34)cc2)cc1` (stereo unspecified), in that order: 8 nM, 10 nM and 5 nM.
For `CC(C)Cc1ccc([C@]2(C)Oc3ccc(C(=O)c4cn(CCCC(=O)O)c5ccccc45)cc3O2)cc1`, in that order: 25 nM, 23 nM and 9 nM.
For `O=C(O)CCCn1cc(C(=O)c2ccc3c(c2)OC(c2ccccc2)(c2ccccc2)O3)c2ccccc21`, in that order: 23 nM, 34 nM and 3 nM.
With `CC(C)Cc1ccc(C(C)Oc2ccc(C(=O)N3CC(CCCC(=O)O)c4ccccc43)cc2)cc1` (stereo unspecified), the figures for the Potency in [1], in [2] and in [3] were 113 nM, 481 nM and 24 nM, respectively.
With `Cc1c(O[C@@H](C)c2ccc(CC(C)C)cc2)ccc(C(=O)Nc2ccccc2OCCCC(=O)O)c1C`, in [2], the Potency is 256 nM.
As to `CC(C)Cc1ccc([C@H](C)Oc2ccc(C(=O)c3cn(CCCC(=O)O)c4ccccc34)cc2)cc1`, the clearance in [4] is 2.4 mL/min/kg; in data set [8], 11 mL/min/kg. Besides, the Vd in data set [5] came to 3.6 L/kg; in data set [10] it was 0.9 L/kg. In addition, the results for the bioavailability in data set [6] and in [9] were 86% and 56%, respectively. The compound also showed a half-life in data set [7] of 3.7 h. Further, the Potency in [1] amounted to 40 nM; in data set [2], 4 nM; in data set [3] it was 1 nM.
